{"source": "ChEMBL document CHEMBL1154377", "about": "“Evaluation of basic, heterocyclic ring systems as templates for use as potassium competitive acid blockers (pCABs)” (Bioorg Med Chem Lett, 2009)", "data": [{"target": "not listed separately", "assay": "Inhibition of H+/K+ ATPase at pH 7.4", "settings": "not given", "values": [{"compound": "Cc1cccc(C)c1CNc1nc(N2CCOCC2=O)cc2c(C)c(C)n(CCO)c12", "pIC50": 6.6}, {"compound": "Cc1cccc(C)c1CNc1ccnc2c1nc(C)n2C", "pIC50": 4.5}, {"compound": "CCn1c(C)c(C)c2cc(-n3ccccc3=O)nc(NCc3c(C)cccc3C)c21", "pIC50": 7.4}, {"compound": "Cc1cccc(C)c1COc1cccn2c(C)c(C)nc12", "pIC50": 7.6}, {"compound": "Cc1cccc(C)c1CNc1nc(-c2ccccc2)cc2c(C)c(C)[nH]c12", "pIC50": 6.3}]}, {"target": "T1, Cytochrome P450 1A2 (Homo sapiens, UniProt P05177)", "T1 sequence (P05177 whole entry)": "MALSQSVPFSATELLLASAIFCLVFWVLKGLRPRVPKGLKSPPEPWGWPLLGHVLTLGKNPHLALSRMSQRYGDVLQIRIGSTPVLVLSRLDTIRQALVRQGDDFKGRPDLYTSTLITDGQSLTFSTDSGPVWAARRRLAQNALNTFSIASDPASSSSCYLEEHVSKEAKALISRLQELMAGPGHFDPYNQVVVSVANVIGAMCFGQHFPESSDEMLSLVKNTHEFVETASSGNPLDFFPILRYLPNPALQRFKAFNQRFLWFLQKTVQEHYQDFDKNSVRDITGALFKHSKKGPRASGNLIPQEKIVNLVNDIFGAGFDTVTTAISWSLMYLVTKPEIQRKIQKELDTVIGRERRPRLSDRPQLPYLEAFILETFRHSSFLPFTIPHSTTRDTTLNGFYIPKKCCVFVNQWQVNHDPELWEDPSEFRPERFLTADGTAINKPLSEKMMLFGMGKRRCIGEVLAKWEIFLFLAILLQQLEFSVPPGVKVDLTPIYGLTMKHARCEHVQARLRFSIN", "assay": "Inhibition of CYP1A2", "format": "ADME", "settings": "not given", "units": {"IC50": "µM"}, "values": [{"compound": "Cc1cccc(C)c1CNc1nc(N2CCOCC2=O)cc2c(C)c(C)n(CCO)c12", "IC50": "> 100"}, {"compound": "CCn1c(C)c(C)c2cc(-n3ccccc3=O)nc(NCc3c(C)cccc3C)c21", "IC50": 65}, {"compound": "Cc1cccc(C)c1COc1cccn2c(C)c(C)nc12", "IC50": 0.7}, {"compound": "Cc1cccc(C)c1CNc1nc(-c2ccccc2)cc2c(C)c(C)[nH]c12", "IC50": 3.7}]}, {"target": "Cytochrome P450 2C19 (Homo sapiens, UniProt P33261)", "sequence (P33261 whole entry)": "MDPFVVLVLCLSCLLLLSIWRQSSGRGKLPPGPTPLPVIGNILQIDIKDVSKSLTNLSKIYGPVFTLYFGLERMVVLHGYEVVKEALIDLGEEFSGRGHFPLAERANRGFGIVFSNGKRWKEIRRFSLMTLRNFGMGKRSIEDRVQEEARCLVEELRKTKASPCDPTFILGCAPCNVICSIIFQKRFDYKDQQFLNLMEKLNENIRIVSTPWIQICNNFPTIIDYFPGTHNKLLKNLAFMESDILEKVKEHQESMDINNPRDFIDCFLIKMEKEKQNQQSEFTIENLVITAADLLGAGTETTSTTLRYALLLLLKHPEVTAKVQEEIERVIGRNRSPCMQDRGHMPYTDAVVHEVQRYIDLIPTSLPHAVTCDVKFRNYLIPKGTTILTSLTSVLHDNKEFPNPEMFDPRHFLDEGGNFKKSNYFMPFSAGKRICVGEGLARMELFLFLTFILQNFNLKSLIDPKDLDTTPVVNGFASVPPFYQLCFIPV", "assay": "Inhibition of CYP2C19", "format": "ADME", "settings": "not given", "units": {"IC50": "µM"}, "values": [{"compound": "Cc1cccc(C)c1CNc1nc(N2CCOCC2=O)cc2c(C)c(C)n(CCO)c12", "IC50": "> 100"}, {"compound": "CCn1c(C)c(C)c2cc(-n3ccccc3=O)nc(NCc3c(C)cccc3C)c21", "IC50": 6.5}, {"compound": "Cc1cccc(C)c1COc1cccn2c(C)c(C)nc12", "IC50": 6.2}, {"compound": "Cc1cccc(C)c1CNc1nc(-c2ccccc2)cc2c(C)c(C)[nH]c12", "IC50": 0.3}]}, {"target": "Cytochrome P450 2D6 (Homo sapiens, UniProt P10635)", "sequence (P10635 whole entry)": "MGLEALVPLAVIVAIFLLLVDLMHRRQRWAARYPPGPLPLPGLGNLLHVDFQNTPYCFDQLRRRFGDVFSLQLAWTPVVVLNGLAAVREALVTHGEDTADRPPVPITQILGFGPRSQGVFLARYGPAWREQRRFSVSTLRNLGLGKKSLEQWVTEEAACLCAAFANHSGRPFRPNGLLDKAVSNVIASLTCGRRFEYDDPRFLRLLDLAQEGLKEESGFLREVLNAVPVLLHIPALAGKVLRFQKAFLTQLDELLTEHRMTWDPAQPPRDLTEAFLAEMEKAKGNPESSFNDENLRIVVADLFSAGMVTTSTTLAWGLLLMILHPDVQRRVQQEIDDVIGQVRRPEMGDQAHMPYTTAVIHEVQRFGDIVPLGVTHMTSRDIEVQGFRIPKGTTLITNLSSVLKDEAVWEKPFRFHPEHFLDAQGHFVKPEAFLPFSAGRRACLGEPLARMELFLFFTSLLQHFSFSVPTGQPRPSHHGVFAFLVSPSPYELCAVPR", "assay": "Inhibition of CYP2D6", "format": "ADME", "settings": "not given", "units": {"IC50": "µM"}, "values": [{"compound": "Cc1cccc(C)c1CNc1nc(N2CCOCC2=O)cc2c(C)c(C)n(CCO)c12", "IC50": 36}, {"compound": "CCn1c(C)c(C)c2cc(-n3ccccc3=O)nc(NCc3c(C)cccc3C)c21", "IC50": 18}, {"compound": "Cc1cccc(C)c1COc1cccn2c(C)c(C)nc12", "IC50": 2.3}, {"compound": "Cc1cccc(C)c1CNc1nc(-c2ccccc2)cc2c(C)c(C)[nH]c12", "IC50": 0.6}]}, {"target": "T2, Cytochrome P450 3A4 (Homo sapiens, UniProt P08684)", "T2 sequence (P08684 whole entry)": "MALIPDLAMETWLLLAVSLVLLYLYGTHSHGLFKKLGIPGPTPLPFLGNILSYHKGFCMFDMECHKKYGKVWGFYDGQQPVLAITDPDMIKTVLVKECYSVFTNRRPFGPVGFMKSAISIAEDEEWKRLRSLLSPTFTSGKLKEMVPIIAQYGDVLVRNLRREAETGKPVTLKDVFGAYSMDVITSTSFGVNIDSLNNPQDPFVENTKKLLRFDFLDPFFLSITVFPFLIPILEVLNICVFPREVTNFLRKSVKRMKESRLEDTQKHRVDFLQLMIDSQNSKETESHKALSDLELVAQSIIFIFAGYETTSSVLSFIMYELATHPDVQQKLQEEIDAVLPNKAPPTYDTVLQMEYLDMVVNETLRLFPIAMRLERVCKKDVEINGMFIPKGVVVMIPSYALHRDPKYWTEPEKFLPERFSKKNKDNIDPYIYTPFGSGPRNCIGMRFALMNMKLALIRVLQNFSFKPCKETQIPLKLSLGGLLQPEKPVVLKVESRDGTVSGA", "assay": "Inhibition of CYP3A4 using diethoxyfluorescein substrate", "format": "ADME", "settings": "not given", "units": {"IC50": "µM"}, "values": [{"compound": "Cc1cccc(C)c1CNc1nc(N2CCOCC2=O)cc2c(C)c(C)n(CCO)c12", "IC50": 6}, {"compound": "CCn1c(C)c(C)c2cc(-n3ccccc3=O)nc(NCc3c(C)cccc3C)c21", "IC50": 2.9}, {"compound": "Cc1cccc(C)c1COc1cccn2c(C)c(C)nc12", "IC50": 5.5}, {"compound": "Cc1cccc(C)c1CNc1nc(-c2ccccc2)cc2c(C)c(C)[nH]c12", "IC50": 7.7}]}, {"target": "T2, Cytochrome P450 3A4", "assay": "Inhibition of CYP3A4 using 7-benzyloxyquinoline substrate", "format": "ADME", "settings": "not given", "units": {"IC50": "µM"}, "values": [{"compound": "Cc1cccc(C)c1CNc1nc(N2CCOCC2=O)cc2c(C)c(C)n(CCO)c12", "IC50": 11}, {"compound": "Cc1cccc(C)c1COc1cccn2c(C)c(C)nc12", "IC50": 18}, {"compound": "Cc1cccc(C)c1CNc1nc(-c2ccccc2)cc2c(C)c(C)[nH]c12", "IC50": 6.6}]}, {"system": "not listed separately", "assay": "Intrinsic clearance in rat liver microsomes", "format": "ADME, Microsome", "settings": "not given", "units": {"CLint scaled": "mL/min/kg"}, "values": [{"compound": "Cc1cccc(C)c1CNc1cc(C(=O)NCCO)cn2c(C)c(C)nc12", "note": "[LINAPRAZAN]", "CLint scaled": 4}, {"compound": "Cc1cccc(C)c1CNc1nc(N2CCOCC2=O)cc2c(C)c(C)n(CCO)c12", "CLint scaled": 6.5}, {"compound": "CCn1c(C)c(C)c2cc(-n3ccccc3=O)nc(NCc3c(C)cccc3C)c21", "CLint scaled": 41}, {"compound": "CCc1cccc(C)c1CNc1cc(C(N)=O)cn2c(C)c(C)nc12", "CLint scaled": 14}, {"compound": "Cc1cccc(C)c1CNc1nc(-c2ccccc2)cc2c(C)c(C)[nH]c12", "CLint scaled": 3.9}]}, {"system": "not listed separately", "assay": "Intrinsic clearance in dog liver microsomes", "format": "ADME, Canis lupus familiaris, Microsome", "settings": "not given", "units": {"CLint scaled": "mL/min/kg"}, "values": [{"compound": "Cc1cccc(C)c1CNc1cc(C(=O)NCCO)cn2c(C)c(C)nc12", "note": "[LINAPRAZAN]", "CLint scaled": 0.9}, {"compound": "CCc1cccc(C)c1CNc1cc(C(N)=O)cn2c(C)c(C)nc12", "CLint scaled": 3}]}, {"system": "not listed separately", "assay": "Intrinsic clearance in human liver microsomes", "format": "ADME, Microsome", "settings": "not given", "units": {"CLint scaled": "mL/min/kg"}, "values": [{"compound": "Cc1cccc(C)c1CNc1cc(C(=O)NCCO)cn2c(C)c(C)nc12", "note": "[LINAPRAZAN]", "CLint scaled": 1.3}, {"compound": "Cc1cccc(C)c1CNc1nc(N2CCOCC2=O)cc2c(C)c(C)n(CCO)c12", "CLint scaled": 6.9}, {"compound": "CCn1c(C)c(C)c2cc(-n3ccccc3=O)nc(NCc3c(C)cccc3C)c21", "CLint scaled": 22}, {"compound": "CCc1cccc(C)c1CNc1cc(C(N)=O)cn2c(C)c(C)nc12", "CLint scaled": 6.5}, {"compound": "Cc1cccc(C)c1CNc1nc(-c2ccccc2)cc2c(C)c(C)[nH]c12", "CLint scaled": "< 0.5"}]}, {"system": "not listed separately", "assay": "(§1) Dissociation constant, pKa of the compound", "format": "physicochemical", "settings": "not given", "values": [{"compound": "Cc1cccc(C)c1CNc1nc(-c2ccccc2)cc2c(C)c(C)[nH]c12", "pKa": "Insoluble"}]}, {"system": "not listed separately", "assay": "as §1", "format": "physicochemical", "settings": "read-out: pKa", "values": [{"compound": "Cc1cccc(C)c1CNc1cc(C(=O)NCCO)cn2c(C)c(C)nc12", "note": "[LINAPRAZAN]", "pKa": 6.27}, {"compound": "Cc1cccc(C)c1CNc1nc(N2CCOCC2=O)cc2c(C)c(C)n(CCO)c12", "pKa": 5.4}, {"compound": "Cc1cccc(C)c1CNc1ccnc2c1nc(C)n2C", "pKa": 5.81}, {"compound": "CCn1c(C)c(C)c2cc(-n3ccccc3=O)nc(NCc3c(C)cccc3C)c21", "pKa": 4}, {"compound": "Cc1cccc(C)c1COc1cccn2c(C)c(C)nc12", "pKa": 7.41}]}, {"system": "not listed separately", "assay": "Chromatographic hydrophobicity index at pH 7.4 by fast gradient HPLC", "format": "physicochemical", "settings": "buffer", "values": [{"compound": "Cc1cccc(C)c1CNc1cc(C(=O)NCCO)cn2c(C)c(C)nc12", "note": "[LINAPRAZAN]", "chromatographic logD": 2.14}, {"compound": "Cc1cccc(C)c1CNc1nc(N2CCOCC2=O)cc2c(C)c(C)n(CCO)c12", "chromatographic logD": 2.93}, {"compound": "Cc1cccc(C)c1CNc1ccnc2c1nc(C)n2C", "chromatographic logD": 2.27}, {"compound": "CCn1c(C)c(C)c2cc(-n3ccccc3=O)nc(NCc3c(C)cccc3C)c21", "chromatographic logD": 3.9}, {"compound": "Cc1cccc(C)c1COc1cccn2c(C)c(C)nc12", "chromatographic logD": 3.38}, {"compound": "Cc1cccc(C)c1CNc1nc(-c2ccccc2)cc2c(C)c(C)[nH]c12", "chromatographic logD": 5.31}]}, {"target": "Cytochrome P450 2C9 (Homo sapiens, UniProt P11712)", "sequence (P11712 whole entry)": "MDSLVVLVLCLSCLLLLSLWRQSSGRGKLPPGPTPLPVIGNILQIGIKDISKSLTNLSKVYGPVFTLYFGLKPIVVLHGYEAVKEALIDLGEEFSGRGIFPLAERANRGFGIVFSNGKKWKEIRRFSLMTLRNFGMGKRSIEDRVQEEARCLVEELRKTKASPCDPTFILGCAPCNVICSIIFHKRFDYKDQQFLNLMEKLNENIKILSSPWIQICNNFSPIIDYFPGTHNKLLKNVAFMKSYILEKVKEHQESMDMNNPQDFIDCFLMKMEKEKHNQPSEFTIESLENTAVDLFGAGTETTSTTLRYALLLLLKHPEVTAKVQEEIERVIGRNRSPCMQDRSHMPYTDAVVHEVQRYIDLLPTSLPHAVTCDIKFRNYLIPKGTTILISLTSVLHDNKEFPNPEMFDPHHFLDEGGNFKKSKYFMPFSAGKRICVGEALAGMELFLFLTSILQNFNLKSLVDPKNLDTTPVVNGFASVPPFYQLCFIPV", "assay": "not given", "settings": "not given", "units": {"IC50": "µM"}, "values": [{"compound": "Cc1cccc(C)c1CNc1nc(N2CCOCC2=O)cc2c(C)c(C)n(CCO)c12", "IC50": 13}, {"compound": "CCn1c(C)c(C)c2cc(-n3ccccc3=O)nc(NCc3c(C)cccc3C)c21", "IC50": 0.7}, {"compound": "Cc1cccc(C)c1COc1cccn2c(C)c(C)nc12", "IC50": 16}, {"compound": "Cc1cccc(C)c1CNc1nc(-c2ccccc2)cc2c(C)c(C)[nH]c12", "IC50": 6.7}]}, {"system": "not listed separately", "assay": "Inhibition of H+/K+ ATPase in parietal cells assessed as inhibition of histamine-stimulated [14C]aminopyrine accumulation", "settings": "not given", "units": {"IC50": "µM"}, "values": [{"compound": "Cc1cccc(C)c1CNc1cc(C(=O)NCCO)cn2c(C)c(C)nc12", "note": "[LINAPRAZAN]", "IC50": 0.0562}, {"compound": "Cc1cccc(C)c1CNc1nc(N2CCOCC2=O)cc2c(C)c(C)n(CCO)c12", "IC50": 0.0794}, {"compound": "CCn1c(C)c(C)c2cc(-n3ccccc3=O)nc(NCc3c(C)cccc3C)c21", "IC50": 0.2}, {"compound": "CCc1cccc(C)c1CNc1cc(C(N)=O)cn2c(C)c(C)nc12", "IC50": 0.0234}, {"compound": "Cc1cccc(C)c1CNc1nc(-c2ccccc2)cc2c(C)c(C)[nH]c12", "IC50": 0.316}]}]}
